Structures can show the parent of a compound that is named as a salt. Where two headings read alike, the source gives them in different places. Where only a bound is given, the exact number is not on record here.

One series relates to PC3. Kind of series: PC3 proliferation. The class given is cell-based. As to conditions: Homo sapiens, PC-3.
The next series addresses T1, PI3K β (p110β/p85α) (Homo sapiens, UniProt P42338).
T1 construct: purchased Upstate / Millipore Corporation
Nature of the series: PI 3-Kinase (human) HTRF assay, PI3K β. Format: biochemical. As to conditions: read-out: PI3K β IC50. (In TR-FRET formats the signal depends on donor and acceptor labels being close together.)

In another series the target is T2, PI3K α (p110α/p85α) (Homo sapiens, UniProt P42336).
T2 construct: purchased Upstate / Millipore Corporation
Nature of the series: PI 3-Kinase (human) HTRF assay, PI3K α. Format: biochemical. As to conditions: read-out: PI3K α IC50.

The target of a further series is T3, mTOR (Homo sapiens, UniProt P42345).
T3 construct: purchased Invitrogen
Nature of the series: mTOR kinase inhibition assay (radiometric or LanthaScreen TR-FRET). The class given is biochemical. As to conditions: read-out: mTORC IC50.

A further series addresses T4, PI3K δ (Homo sapiens, UniProt O00329).
T4 construct: purchased Upstate / Millipore Corporation
Nature of the series: PI 3-Kinase (human) HTRF assay, PI3K δ. Format: biochemical. As to conditions: read-out: PI3K δ IC50.

A further series concerns T47D. Kind of series: T47D proliferation. As to conditions: Homo sapiens; T47D cell line. The class given is cell-based.
In the next series the target is T5, PI3K γ (p110γ) (Homo sapiens, UniProt P48736).
T5 construct: purchased Upstate / Millipore Corporation
Nature of the series: PI 3-Kinase (human) HTRF assay, PI3K γ. Format: biochemical. As to conditions: read-out: PI3K γ IC50.

The subject of another series is MDA-MB-361. Nature of the series: MDA-MB-361 proliferation. The class given is cell-based. As to conditions: Homo sapiens, MDA-MB-361, Starting with compound 438, proliferation data was obtained using an MDA-MB-361 cell line; read-out: PC3 proliferation (nM)*.
For series [1] the following is noted: clinical use of the marketed drug; cited from earlier work.
Where [2] appears, read: Table 2 (mTor inhibitor compounds), PC3, read-out: PC3 proliferation.
Setting [3] is: PC3 cell line (compounds before 438), read-out: PC3 proliferation (nM)*.

T3 sequence (P42345 1360-2549 limits assumed): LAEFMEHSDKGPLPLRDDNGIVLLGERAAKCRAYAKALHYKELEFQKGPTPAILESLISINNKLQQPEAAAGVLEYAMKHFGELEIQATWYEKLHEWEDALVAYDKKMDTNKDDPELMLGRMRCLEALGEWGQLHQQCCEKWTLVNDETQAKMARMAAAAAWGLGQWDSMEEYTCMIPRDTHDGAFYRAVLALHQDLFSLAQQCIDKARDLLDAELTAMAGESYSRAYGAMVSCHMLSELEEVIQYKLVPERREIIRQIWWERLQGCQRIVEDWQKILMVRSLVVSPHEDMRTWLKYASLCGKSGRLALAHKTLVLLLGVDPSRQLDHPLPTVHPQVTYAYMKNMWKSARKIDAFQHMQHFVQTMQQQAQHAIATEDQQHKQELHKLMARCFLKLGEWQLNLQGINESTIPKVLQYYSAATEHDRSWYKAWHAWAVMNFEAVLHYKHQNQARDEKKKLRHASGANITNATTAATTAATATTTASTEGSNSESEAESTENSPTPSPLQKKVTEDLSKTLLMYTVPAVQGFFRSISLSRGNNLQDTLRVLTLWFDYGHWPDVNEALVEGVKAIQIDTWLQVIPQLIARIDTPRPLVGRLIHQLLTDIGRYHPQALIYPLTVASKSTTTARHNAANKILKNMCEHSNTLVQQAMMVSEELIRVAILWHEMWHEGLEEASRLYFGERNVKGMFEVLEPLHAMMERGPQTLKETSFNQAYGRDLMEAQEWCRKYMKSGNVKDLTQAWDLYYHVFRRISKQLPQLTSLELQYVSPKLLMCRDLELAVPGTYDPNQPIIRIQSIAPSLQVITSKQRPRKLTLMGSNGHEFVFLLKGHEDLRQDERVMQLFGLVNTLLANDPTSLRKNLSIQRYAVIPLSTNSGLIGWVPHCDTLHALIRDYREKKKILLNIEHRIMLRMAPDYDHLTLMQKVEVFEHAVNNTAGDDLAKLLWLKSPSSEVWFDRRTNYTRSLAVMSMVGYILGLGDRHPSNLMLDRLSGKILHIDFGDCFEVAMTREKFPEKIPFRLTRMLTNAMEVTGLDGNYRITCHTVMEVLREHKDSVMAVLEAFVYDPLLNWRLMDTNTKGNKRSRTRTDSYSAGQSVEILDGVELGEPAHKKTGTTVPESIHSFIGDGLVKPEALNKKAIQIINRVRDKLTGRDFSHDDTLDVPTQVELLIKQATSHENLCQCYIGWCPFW
T5 sequence (P48736 whole entry): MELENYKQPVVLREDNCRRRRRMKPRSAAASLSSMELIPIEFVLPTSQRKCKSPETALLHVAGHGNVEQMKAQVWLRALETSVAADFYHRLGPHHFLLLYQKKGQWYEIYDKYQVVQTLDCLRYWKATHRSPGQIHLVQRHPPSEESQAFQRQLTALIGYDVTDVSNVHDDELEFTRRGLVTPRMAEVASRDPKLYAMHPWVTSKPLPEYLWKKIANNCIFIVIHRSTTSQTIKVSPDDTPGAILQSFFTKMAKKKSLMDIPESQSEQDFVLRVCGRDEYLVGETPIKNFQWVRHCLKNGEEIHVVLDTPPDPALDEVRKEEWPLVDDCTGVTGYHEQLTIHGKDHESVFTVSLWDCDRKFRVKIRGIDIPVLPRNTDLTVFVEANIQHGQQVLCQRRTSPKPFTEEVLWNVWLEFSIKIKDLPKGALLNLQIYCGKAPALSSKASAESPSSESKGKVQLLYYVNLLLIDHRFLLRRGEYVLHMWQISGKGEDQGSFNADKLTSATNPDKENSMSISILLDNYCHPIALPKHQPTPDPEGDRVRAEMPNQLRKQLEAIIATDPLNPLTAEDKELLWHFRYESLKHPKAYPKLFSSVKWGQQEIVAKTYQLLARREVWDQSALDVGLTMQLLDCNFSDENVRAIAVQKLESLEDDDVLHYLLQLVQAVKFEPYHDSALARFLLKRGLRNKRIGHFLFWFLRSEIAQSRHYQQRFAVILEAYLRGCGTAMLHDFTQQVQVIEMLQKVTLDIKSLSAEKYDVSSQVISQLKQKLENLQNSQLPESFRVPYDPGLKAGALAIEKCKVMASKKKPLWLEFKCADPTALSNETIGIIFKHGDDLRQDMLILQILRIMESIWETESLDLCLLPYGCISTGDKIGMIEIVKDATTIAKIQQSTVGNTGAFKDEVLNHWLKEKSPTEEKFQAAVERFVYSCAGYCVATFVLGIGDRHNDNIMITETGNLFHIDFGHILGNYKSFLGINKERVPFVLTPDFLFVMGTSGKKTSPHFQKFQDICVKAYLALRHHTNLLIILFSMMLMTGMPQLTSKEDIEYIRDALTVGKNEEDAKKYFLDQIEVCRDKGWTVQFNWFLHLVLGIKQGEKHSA
T2 sequence (P42336 whole entry): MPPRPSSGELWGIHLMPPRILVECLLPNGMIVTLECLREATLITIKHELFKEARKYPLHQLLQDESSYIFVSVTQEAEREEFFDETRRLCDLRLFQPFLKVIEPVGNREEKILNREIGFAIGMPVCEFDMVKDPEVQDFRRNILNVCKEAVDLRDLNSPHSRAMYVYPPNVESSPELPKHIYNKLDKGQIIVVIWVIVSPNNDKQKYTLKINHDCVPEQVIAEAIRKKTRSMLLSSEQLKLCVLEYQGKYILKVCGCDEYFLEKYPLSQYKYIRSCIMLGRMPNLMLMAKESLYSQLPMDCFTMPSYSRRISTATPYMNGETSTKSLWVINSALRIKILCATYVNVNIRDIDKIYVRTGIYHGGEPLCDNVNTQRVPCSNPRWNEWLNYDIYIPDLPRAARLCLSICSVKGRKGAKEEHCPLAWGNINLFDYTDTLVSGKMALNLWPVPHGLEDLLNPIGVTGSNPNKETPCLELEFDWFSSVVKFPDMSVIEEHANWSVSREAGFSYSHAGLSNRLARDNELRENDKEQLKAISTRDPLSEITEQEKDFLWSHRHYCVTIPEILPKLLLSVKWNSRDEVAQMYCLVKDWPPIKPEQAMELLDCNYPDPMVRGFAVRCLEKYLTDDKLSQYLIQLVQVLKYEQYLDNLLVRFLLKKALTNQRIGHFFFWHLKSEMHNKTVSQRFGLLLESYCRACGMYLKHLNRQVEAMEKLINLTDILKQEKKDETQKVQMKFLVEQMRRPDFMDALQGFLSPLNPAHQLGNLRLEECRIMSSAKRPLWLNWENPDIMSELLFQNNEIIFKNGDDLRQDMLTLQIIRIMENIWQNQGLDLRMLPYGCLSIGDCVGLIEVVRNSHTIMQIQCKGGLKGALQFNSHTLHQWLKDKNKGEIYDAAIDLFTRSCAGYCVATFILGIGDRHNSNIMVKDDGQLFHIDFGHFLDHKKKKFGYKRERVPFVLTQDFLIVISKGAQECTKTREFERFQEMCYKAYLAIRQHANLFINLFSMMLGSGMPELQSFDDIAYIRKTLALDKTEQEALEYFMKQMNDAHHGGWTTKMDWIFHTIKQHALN
T2 sequence (P27986 whole entry partner): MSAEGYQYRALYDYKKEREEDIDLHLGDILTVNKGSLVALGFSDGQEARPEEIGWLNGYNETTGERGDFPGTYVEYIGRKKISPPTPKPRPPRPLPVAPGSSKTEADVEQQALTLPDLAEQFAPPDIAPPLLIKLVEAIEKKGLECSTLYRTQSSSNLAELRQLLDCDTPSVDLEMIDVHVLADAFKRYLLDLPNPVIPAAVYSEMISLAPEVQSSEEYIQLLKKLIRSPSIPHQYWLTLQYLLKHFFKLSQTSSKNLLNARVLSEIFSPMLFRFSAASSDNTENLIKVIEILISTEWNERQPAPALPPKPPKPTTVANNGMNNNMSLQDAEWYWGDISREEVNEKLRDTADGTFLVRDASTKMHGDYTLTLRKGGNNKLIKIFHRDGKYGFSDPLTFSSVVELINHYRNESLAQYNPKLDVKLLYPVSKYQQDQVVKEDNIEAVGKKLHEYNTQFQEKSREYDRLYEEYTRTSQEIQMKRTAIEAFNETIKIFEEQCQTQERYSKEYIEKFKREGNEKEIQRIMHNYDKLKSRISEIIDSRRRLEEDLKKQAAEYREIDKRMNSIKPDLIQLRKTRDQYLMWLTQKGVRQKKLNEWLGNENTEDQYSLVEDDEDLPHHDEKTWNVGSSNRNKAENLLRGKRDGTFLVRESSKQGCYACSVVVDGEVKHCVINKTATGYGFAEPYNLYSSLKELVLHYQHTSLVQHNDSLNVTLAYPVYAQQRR
Experimental for PI3K δ: Briefly, the assay is a time resolved FRET assay that indirectly measures PIP3 product formed by the activity of a PI3-K. The kinase reaction is performed in a microtiter plate (e.g., a 384 well microtiter plate). The total reaction volume is approximately 20 ul per well. In the first step, each well receives 2 ul of test compound in 20% dimethylsulphoxide resulting in a 2% DMSO final concentration. […] The plate is sealed and incubated for 15 minutes at room temperature. […] The plate is sealed and incubated for 1 hour at room temperature. The reaction is stopped by adding 5 ul of Stop Solution per well and then 5 ul of Detection Mix is added per well. The plate is sealed, incubated for 1 hour at room temperature, and then read on an appropriate plate reader. Data is analyzed and IC50s are generated using GraphPad Prism 5.
Experimental for mTOR: The cross-activity or lack thereof of one or more compounds of the present invention against mTor can be measured according to any procedures known in the art or methods disclosed below.
The compounds described herein can be tested against recombinant mTOR (Invitrogen) in an assay containing 50 mM HEPES, pH 7.5, 1 mM EGTA, 10 mM MgCl2, 2.5 mM, 0.01% Tween, 10 μM ATP (2.5 μCi of μ-32P-ATP), and 3 μg/mL BSA. Rat recombinant PHAS-1/4EBP1 (Calbiochem; 2 mg/mL) is used as a substrate. Reactions are terminated by spotting onto nitrocellulose, which is washed with 1M NaCl/1% phosphoric acid (approximately 6 times, 5-10 minutes each). Sheets are dried and the transferred radioactivity quantitated by phosphorimaging.
For instance, one can use Invitrogen's LanthaScreen™ Kinase assay to test the inhibitors of mTOR disclosed herein. This assay is a time resolved FRET platform that measures the phosphorylation of GFP labeled 4EBP1 by mTOR kinase. The kinase reaction is performed in a white 384 well microtiter plate. The total reaction volume is 20 ul per well and the reaction buffer composition is 50 mM HEPES pH7.5, 0.01% Polysorbate 20, 1 mM EGTA, 10 mM MnCl2, and 2 mM DTT. In the first step, each well receives 2 ul of test compound in 20% dimethylsulphoxide resulting in a 2% DMSO final concentration. […] The plate is sealed and incubated for 1 hour at room temperature. […] The plate is sealed, incubated for 1 hour at room temperature, and then read on a plate reader set up for LanthaScreen™ TR-FRET. Data is analyzed and IC50s are generated using GraphPad Prism 5.

Regarding `CC(C)n1nc(-c2cc3ccc(C(N)=O)cc3[nH]2)c2c(N)ncnc21` [Compound 25], the IC50 in the series on PC3 (setting [2]) was above 500 nM.

As to `CC(C)n1nc(-c2cc3ccc(C#N)cc3[nH]2)c2c(N)ncnc21` [Compound 24], the IC50 with PC3 (setting [2]) was above 500 nM.

For `Nc1nc2cc(-c3ccc4ncc(-c5ccncc5)n4c3)ccc2o1` [Compound 6], the IC50 is below 10 µM at PI3K β (p110β/p85α); below 0.1 µM at PI3K α (p110α/p85α); below 10000 nM with PC3 (setting [3]); below 10 µM at mTOR; below 1 µM at PI3K δ; below 1 µM with T47D.

Turning to `Nc1nc2cc(-c3ccc4ncc(-c5ccc6nc(N)oc6c5)n4c3)ccc2o1` [Compound 50], the IC50 is below 0.1 µM on PI3K α (p110α/p85α); above 10 µM at mTOR; below 10 µM on PI3K δ; below 10 µM in the series with T47D; below 0.1 µM on PI3K γ (p110γ).

Regarding `CN1CC(C(=O)N2CCC(Nc3ncnc4ccc(-c5ccc6oc(N)nc6c5)cc34)CC2)C1` [Compound 138], the IC50 on PI3K β (p110β/p85α) is below 1 µM; at PI3K α (p110α/p85α) it was below 0.1 µM; on PI3K δ, below 0.1 µM; in the series with T47D, above 10 µM; on PI3K γ (p110γ), below 1 µM.

With `Nc1nc2ccc(-c3ccc4nccc(-c5ccncc5)c4c3)cc2o1` [Compound 4], the IC50 is below 0.1 µM on PI3K β (p110β/p85α); below 0.1 µM at PI3K α (p110α/p85α); below 100 nM with PC3 (setting [3]); below 1 µM on mTOR; below 0.1 µM on PI3K δ.

Consider `CC1CN(c2cnc3ccc(-c4ccc5oc(N)nc5c4)cc3n2)CCN1` (centres unmarked) [Compound 149], for which the IC50 on PI3K β (p110β/p85α) is below 0.1 µM; at PI3K α (p110α/p85α) it was below 0.1 µM; at PI3K δ, below 10 µM; in the series with T47D, above 10 µM.

`COc1ncc(-c2ccc3ncc(C(=O)N4CCOCC4)n3c2)cc1NS(=O)(=O)c1cccnc1` [Compound 462]: the IC50 is below 0.1 µM on PI3K β (p110β/p85α); below 0.1 µM at PI3K α (p110α/p85α); below 0.1 µM at PI3K δ; below 1000 nM in the series on MDA-MB-361; below 0.1 µM at PI3K γ (p110γ).

Regarding `Nc1nc2cc(-c3ccc4ncc(C(=O)Nc5cccnc5)n4c3)ccc2o1` [Compound 190], the IC50 was above 10 µM at PI3K β (p110β/p85α); below 0.1 µM on PI3K α (p110α/p85α); below 1 µM at PI3K δ; above 10 µM in the series with T47D; below 0.1 µM at PI3K γ (p110γ).

As for `CN1CCC(n2cnc3ccc(-c4ccc5oc(N)nc5c4)cc3c2=O)CC1` [Compound 36], the IC50 at PI3K α (p110α/p85α) was below 0.1 µM; at mTOR it was below 10 µM; on PI3K δ it was below 10 µM; in the series on T47D it was below 10 µM; on PI3K γ (p110γ) it was above 10 µM.

Turning to `Cc1nc2ccc(-c3ccc4oc(N)nc4c3)nn2c1-c1ccncc1` [Compound 56], the IC50 on PI3K β (p110β/p85α) was below 1 µM; on PI3K α (p110α/p85α) it was below 0.1 µM; on mTOR it was below 1 µM; on PI3K δ, above 10 µM; in the series on T47D it was below 10 µM; on PI3K γ (p110γ) it was below 0.1 µM.

As for `Cn1c(=O)n(-c2ccc(C(C)(C)C#N)cc2)c2c3cc(-c4ccc5oc(N)nc5c4)ccc3ncc21` [Compound 7], the IC50 is below 0.1 µM on PI3K β (p110β/p85α); below 0.1 µM at PI3K α (p110α/p85α); below 100 nM in the series on PC3 (setting [3]); below 0.1 µM on mTOR; below 0.1 µM at PI3K δ; below 0.1 µM on PI3K γ (p110γ).

In the case of `Nc1nc2cc(-c3ccc4ncc(N5CCOCC5)nc4c3)ccc2o1` [Compound 64], the IC50 at PI3K β (p110β/p85α) was below 1 µM; on PI3K α (p110α/p85α), below 0.1 µM; at mTOR it was below 10 µM; on PI3K δ, above 10 µM; with T47D, below 10 µM; at PI3K γ (p110γ), below 0.1 µM.

In the case of `CCc1c2c(nc3ccc(OC(=O)N4CCC(N5CCCCC5)CC4)cc13)-c1cc3c(c(=O)n1C2)COC(=O)[C@]3(O)CC` [irinotecan HCl, (4S)-4,11-diethyl-4-hydroxy-9-[(4-piperidinopiperidino)carbonyloxy]-1H-pyrano[3′,4′,6,7]indolizino[1,2-b]quinoline-3,14(4H,12H)-dione hydrochloride], in series [1], the “dose limiting or most common side effect” value was “myelosuppression, including neutropenia, and GI effects, including diarrhea”.

For the compound `Nc1noc2cc(-c3ccc4nccc(-c5ccncc5)c4c3)ccc12` [Compound 16], the IC50 at PI3K β (p110β/p85α) is below 10 µM; on PI3K α (p110α/p85α), below 0.1 µM; at PI3K δ, below 10 µM; in the series on T47D, below 1 µM.
